Data: patent US7709511B2, “Benzothiazolone derivatives” (AstraZeneca AB, priority 2005, dated 2010)
Counter-ions that a name gives are not always drawn.

Tests used:
[1] = molecular target: T1, recombinant human α1D receptor (Homo sapiens, UniProt P25100); experiment: Adrenergic α1D selectivity assay, inhibition of [3H]-prazosin binding to membranes; settings: HEK293 membranes, [3H]-prazosin 0.3 nM; read-out: α1 bind pIC50 (converted)
T1 construct: made in house; host or cells: HEK293 cells (membranes)
T1 sequence (P25100 1-572): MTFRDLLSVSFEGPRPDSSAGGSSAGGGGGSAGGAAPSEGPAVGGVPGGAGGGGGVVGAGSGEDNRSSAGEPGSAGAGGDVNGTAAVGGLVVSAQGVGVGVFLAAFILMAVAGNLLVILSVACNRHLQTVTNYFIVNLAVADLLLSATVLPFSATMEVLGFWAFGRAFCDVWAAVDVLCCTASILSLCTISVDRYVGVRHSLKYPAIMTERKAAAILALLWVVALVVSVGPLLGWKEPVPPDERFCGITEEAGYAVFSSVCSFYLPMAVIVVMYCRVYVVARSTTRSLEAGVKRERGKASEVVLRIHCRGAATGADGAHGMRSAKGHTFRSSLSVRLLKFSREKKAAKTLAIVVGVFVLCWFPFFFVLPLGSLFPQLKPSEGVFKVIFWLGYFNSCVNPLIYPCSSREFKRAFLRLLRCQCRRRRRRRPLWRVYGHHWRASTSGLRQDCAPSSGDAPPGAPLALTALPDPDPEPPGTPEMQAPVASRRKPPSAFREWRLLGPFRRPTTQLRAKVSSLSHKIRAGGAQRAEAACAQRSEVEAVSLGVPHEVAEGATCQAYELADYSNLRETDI
Procedure: Membranes were prepared from human embryonic kidney 293 (HEK293) cells expressing recombinant human α1D receptor. These were diluted in Assay Buffer (50 mM HEPES, 1 mM EDTA, 0.1% gelatin, pH 7.4) to provide a final concentration of membranes that gave a clear window between maximum and minimum specific binding.
Assays were performed in U-bottomed 96-well polypropylene plates. 10 μL [^3H]-prazosin (0.3 nM final concentration) and 10 μL of test compound (10× final concentration) were added to each test well. For each assay plate 8 replicates were obtained for [^3H]-prazosin binding in the presence of 10 μL vehicle (10% (v/v) DMSO in Assay Buffer; defining maximum binding) or 10 μL BMY7378 (10 μM final concentration; defining non-specific binding (NSB)). Membranes were then added to achieve a final volume of 100 μL. The plates were incubated for 2 hours at room temperature and then filtered onto PEI coated GF/B filter plates, pre-soaked for 1 hour in Assay Buffer, using a 96-well plate Tomtec cell harvester. Five washes with 250 μL wash buffer (50 mM HEPES, 1 mM EDTA, pH 7.4) were performed at 4° C. to remove unbound radioactivity. The plates were dried then sealed from underneath using Packard plate sealers and MicroScint-O (50 μL) was added to each well. The plates were sealed (TopSeal A) and filter-bound radioactivity was measured with a scintillation counter (TopCount, Packard BioScience) using a 3-minute counting protocol.
(§1) Total specific binding (B0) was determined by subtracting the mean NSB from the mean maximum binding. NSB values were also subtracted from values from all other wells. […] Data was fitted to a four parameter logistic equation to determine the compound potency, which was expressed as pIC50 (negative log molar concentration inducing 50% inhibition of [^3H]-prazosin binding).

[2] = molecular target: T2, Adrenergic β2 (Homo sapiens, UniProt P07550); experiment: Alternative adrenergic β2 mediated cAMP production in H292 cells (AlphaScreen cAMP detection); type: cell-based; settings: for EC50: cAMP, test compounds incubated 60 minutes at room temperature, 300 μM rolipram, read-out: β2 pEC50 (converted); for β2 Int Act: fraction relative to the maximum activity determined for formoterol, 60 minutes incubation
T2 construct: endogenous in cells; host or cells: H292 cells
T2 sequence (P07550 whole entry): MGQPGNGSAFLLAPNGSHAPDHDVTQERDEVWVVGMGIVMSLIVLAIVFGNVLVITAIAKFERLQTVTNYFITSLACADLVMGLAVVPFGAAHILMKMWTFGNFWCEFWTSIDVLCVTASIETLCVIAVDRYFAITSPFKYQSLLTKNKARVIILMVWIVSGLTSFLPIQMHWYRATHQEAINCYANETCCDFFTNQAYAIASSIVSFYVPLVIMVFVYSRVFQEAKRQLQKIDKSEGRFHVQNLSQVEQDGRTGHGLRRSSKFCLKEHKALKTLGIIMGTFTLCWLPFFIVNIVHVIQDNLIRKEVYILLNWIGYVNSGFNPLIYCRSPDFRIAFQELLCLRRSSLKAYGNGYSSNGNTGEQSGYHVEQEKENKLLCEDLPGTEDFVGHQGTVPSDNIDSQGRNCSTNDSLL
Procedure: Alternative Adrenergic β2 Mediated cAMP Production Cell Preparation
H292 cells were grown in 225 cm2 flasks incubator at 37° C., 5% CO2 in RPMI medium containing, 10% (v/v) FBS (foetal bovine serum) and 2 mM L-glutamine.
Adherent H292 cells were removed from tissue culture flasks by treatment with Accutase™ cell detachment solution for 15 minutes. Flasks were incubated for 15 minutes in a humidified incubator at 37° C., 5% CO2. Detached cells were re-suspended in RPMI media (containing 10% (v/v) FBS and 2 mM L-glutamine) at 0.05×10^6 cells per mL. 5000 cells in 100 μL were added to each well of a tissue-culture-treated 96-well plate and the cells incubated overnight in a humidified incubator at 37° C., 5% CO2. The culture media was removed and cells were washed twice with 100 μL assay buffer and replaced with 50 μL assay buffer (HBSS solution containing 10 mM HEPES pH7.4 and 5 mM glucose). Cells were rested at room temperature for 20 minutes after which time 25 μL of rolipram (1.2 mM made up in assay buffer containing 2.4% (v/v) dimethylsulphoxide) was added. Cells were incubated with rolipram for 10 minutes after which time test compounds were added and the cells were incubated for 60 minutes at room temperature. The final rolipram concentration in the assay was 300 μM and final vehicle concentration was 1.6% (v/v) dimethylsulphoxide. The reaction was stopped by removing supernatants, washing once with 100 μL assay buffer and replacing with 50 μL lysis buffer. The cell monolayer was frozen at −80° C. for 30 minutes (or overnight).
AlphaScreen™ cAMP Detection
The concentration of cAMP (cyclic adenosine monophosphate) in the cell lysate was determined using AlphaScreen™ methodology. The frozen cell plate was thawed for 20 minutes on a plate shaker then 10 μL of the cell lysate was transferred to a 96-well white plate. 40 μL of mixed AlphaScreen™ detection beads pre-incubated with biotinylated cAMP, was added to each well and the plate incubated at room temperature for 10 hours in the dark. The AlphaScreen™ signal was measured using an EnVision spectrophotometer (Perkin-Elmer Inc.) with the recommended manufacturer's settings. cAMP concentrations were determined by reference to a calibration curve determined in the same experiment using standard cAMP concentrations. Concentration response curves for agonists were constructed and data was fitted to a four parameter logistic equation to determine both the pEC50 and Intrinsic Activity. Intrinsic Activity was expressed as a fraction relative to the maximum activity determined for formoterol in each experiment.

[3] = molecular target: T3, recombinant human Dopamine Subtype D2s receptors (Homo sapiens, UniProt P14416); experiment: Dopamine D2 selectivity assay, inhibition of [3H]-spiperone binding to membranes; settings: [3H]-spiperone 0.16 nM; read-out: D2 bind pIC50 (converted)
T3 construct: purchased Perkin Elmer
T3 sequence (P14416 1-414 isoform P14416-2): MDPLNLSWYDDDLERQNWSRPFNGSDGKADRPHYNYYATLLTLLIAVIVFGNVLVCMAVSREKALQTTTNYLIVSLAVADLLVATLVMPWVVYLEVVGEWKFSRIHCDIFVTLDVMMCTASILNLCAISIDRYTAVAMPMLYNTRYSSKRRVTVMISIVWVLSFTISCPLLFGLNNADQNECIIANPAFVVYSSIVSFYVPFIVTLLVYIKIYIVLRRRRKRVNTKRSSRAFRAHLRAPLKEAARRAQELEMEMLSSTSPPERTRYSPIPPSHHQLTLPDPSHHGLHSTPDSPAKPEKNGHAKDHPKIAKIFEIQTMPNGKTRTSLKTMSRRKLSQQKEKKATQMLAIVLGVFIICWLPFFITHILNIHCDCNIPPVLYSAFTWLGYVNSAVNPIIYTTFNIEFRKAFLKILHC
Procedure: Membranes containing recombinant human Dopamine Subtype D2s receptors were obtained from Perkin Elmer. These were diluted in Assay Buffer (50 mM HEPES, 1 mM EDTA, 120 mM NaCl, 0.1% gelatin, pH 7.4) to provide a final concentration of membranes that gave a clear window between maximum and minimum specific binding.
Assays were performed in U-bottomed 96-well polypropylene plates. 30 μL [^3H]-spiperone (0.16 nM final concentration) and 30 μL of test compound (10× final concentration) were added to each test well. For each assay plate 8 replicates were obtained for [^3H]-spiperone binding in the presence of 30 μL vehicle (10% (v/v) DMSO in Assay Buffer; defining maximum binding) or 30 μL Haloperidol (10 μM final concentration; defining non-specific binding (NSB)). Membranes were then added to achieve a final volume of 300 μL. The plates were incubated for 2 hours at room temperature and then filtered onto PEI coated GF/B filter plates, pre-soaked for 1 hour in Assay Buffer, using a 96-well plate Tomtec cell harvester. Five washes with 250 μL wash buffer (50 mM HEPES, 1 mM EDTA, 120 mM NaCl, pH 7.4) were performed at 4° C. to remove unbound radioactivity. The plates were dried then sealed from underneath using Packard plate sealers and MicroScint-O (50 μL) was added to each well. The plates were sealed (TopSeal A) and filter-bound radioactivity was measured with a scintillation counter (TopCount, Packard BioScience) using a 3-minute counting protocol.
as §1, with “[^3H]-spiperone” for “[^3H]-prazosin”

| SMILES | IC50 [1] [nM] | EC50 [2] [nM] | β2 Int Act [2] | IC50 [3] [nM] |
| --- | --- | --- | --- | --- |
| CCN(CC)CCN(CCNCCc1ccc(O)c2[nH]c(=O)sc12)C(=O)CCOCCc1ccccc1C(F)(F)F [Example 17, N-[2-(Diethylamino)ethyl]-N-(2-{[2-(4-hydroxy-2-oxo-2,3-dihydro-1,3-benzothiazol-7-yl)ethyl]amino}ethyl)-3-{2-[2-(trifluoromethyl)phenyl]ethoxy}propanamide ditrifluoroacetate] | 794 | 25.1 | 0.9 |  |
| CCN(CC)CCN(CCNCCc1ccc(O)c2[nH]c(=O)sc12)C(=O)CCOCCc1cccc(Cl)c1 [Example 18, 3-[2-(3-Chlorophenyl)ethoxy]-N-[2-(diethylamino)ethyl]-N-(2-{[2-(4-hydroxy-2-oxo-2,3-dihydro-1,3-benzothiazol-7-yl)ethyl]amino}ethyl)propanamide ditrifluoroacetate] | 794 | 5.01 | 0.7 | 2510 |
| CCN(CC)CCN(CCNCCc1ccc(O)c2[nH]c(=O)sc12)C(=O)CCOCCc1cccc(Cl)c1Cl [Example 20, 3-[2-(2,3-Dichlorophenyl)ethoxy]-N-(2-diethylaminoethyl)-N-(2-{[2-(4-hydroxy-2-oxo-2,3-dihydro-1,3-benzothiazol-7-yl)ethyl]amino}ethyl)propanamide ditrifluoroacetate] | 398 | 10 | 0.6 | 1580 |
| CCN(CC)CCN(CCNCCc1ccc(O)c2[nH]c(=O)sc12)C(=O)CCOCCc1cccc(F)c1 [Example 22, N-(2-Diethylaminoethyl)-3-[2-(3-fluorophenyl)ethoxy]-N-{2-[2-(4-hydroxy-2-oxo-2,3-dihydro-1,3-benzothiazol-7-yl)ethylamino]ethyl}propanamide dihydrobromide] | 1260 | 7.94 | 0.8 | 5010 |
| CCN(CC)CCN(CCNCCc1ccc(O)c2[nH]c(=O)sc12)C(=O)CCOCCc1ccc(Cl)c(Cl)c1 [Example 27, 3-[2-(3,4-Dichlorophenyl)ethoxy]-N-(2-diethylaminoethyl)-N-{2-[2-(4-hydroxy-2-oxo-2,3-dihydro-1,3-benzothiazol-7-yl)ethylamino]ethyl}propanamide dihydrobromide] | 1000 | 31.6 | 0.6 | 3160 |
| CCN(CC)CCN(CCNCCc1ccc(O)c2[nH]c(=O)sc12)C(=O)CCOCCc1cccc(O)c1 [Example 29, N-(2-Diethylaminoethyl)-N-{2-[2-(4-hydroxy-2-oxo-2,3-dihydro-1,3-benzothiazol-7-yl)ethylamino]ethyl}-3-[2-(3-hydroxyphenyl)ethoxy]propanamide dihydrobromide] | 1260 | 6.31 | 0.8 | 251 |
| CCN(CC)CCN(CCNCCc1ccc(O)c2[nH]c(=O)sc12)C(=O)CCOCCc1ccccc1Cl [Example 31, 3-[2-(2-Chlorophenyl)ethoxy]-N-(2-diethylaminoethyl)-N-{2-[2-(4-hydroxy-2-oxo-2,3-dihydro-1,3-benzothiazol-7-yl)ethylamino]ethyl}propanamide ditrifluoroacetate] | 251 | 20 | 0.9 | 5010 |
| CCN(CC)CCN(CCNCCc1ccc(O)c2[nH]c(=O)sc12)C(=O)CCOCCc1ccc2ccccc2c1 [Example 32, N-[2-(Diethylamino)ethyl]-N-(2-{[2-(4-hydroxy-2-oxo-2,3-dihydro-1,3-benzothiazol-7-yl)ethyl]amino}ethyl)-3-[2-(2-naphthyl)ethoxy]propanamide] | 631 | 10 | 0.5 | 794 |
